PMC11868579 (Nature Communications, 2024)
Several values for one entry are separate records, joined by “and”; a condition that tells them apart may be missing. Identical values can stand only once.

Tests used:
eIF4E = molecular target: T1, eIF4E (Homo sapiens, UniProt P06730); test: CETSA in intact H1299 cells; type: cell-based; conditions: 6 hrs; for eIF4E stabilisation, eIF4E normalised to vinculin relative to average control (plotted on graph), Average: H1299, 57 °C, control = 1.000
T1 construct: endogenous in cells; host or cells: H1299
T1 sequence (P06730 whole entry): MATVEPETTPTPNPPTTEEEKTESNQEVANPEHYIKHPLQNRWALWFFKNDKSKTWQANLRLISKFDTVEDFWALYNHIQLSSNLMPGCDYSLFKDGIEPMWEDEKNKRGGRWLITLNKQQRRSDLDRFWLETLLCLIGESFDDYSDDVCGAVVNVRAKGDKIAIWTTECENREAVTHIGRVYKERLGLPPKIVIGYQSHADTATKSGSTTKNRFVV
Description: Cells (1.5 × 10^6 cells) were plated into 75 cm^2 flasks and allowed to attached overnight. After treatment with compound 4 or 5 for 6 h, they were harvested by trypsinisation and washed x2 in ice cold PBS. Cells were resuspended in 1 ml of cold PBS supplemented with protease and phosphatase inhibitors (Fisher Scientific, cat#1861281). Resuspended cells were divided into 100 μl aliquots and centrifuged at 300 x g for 3 min at 4 °C. Following centrifugation, 75μl of supernatant was removed and cells resuspended in the remaining volume. Cell suspensions were heated at 40.9, 43.7, 48.1, 52.9, 57.6, 62.4, 67.2, 71.9, 76.3 and 79.1 °C for 3 mins followed by cooling at 20 °C for 3 min[25]. Suspensions were freeze-thawed twice using liquid nitrogen. Soluble fractions were separated from cell debris by centrifuging at 20,000 x g for 30 min at 4 °C. Samples were then analysed by Western Blot.

[1] = type: physicochemical
Source text: Chrom kinetic Plasma Caco-2 microsomal
Cmpd Chemical MW LogD solubility protein permeability intrinsic
# Structure (Da) (pH binding (Papp x10-6 clearance […]
Supplementary notes Table Physicochemical and in vitro pharmacokinetic properties of compound 4.
Experimental procedures for the measurement of ChromLogD, aqueous solubility, plasma protein binding, Caco2 permeability and microsomal […]
Determination of Chromatographic LogD (ChromLogD7.4)
Chromatographic hydrophobicity index (CHI) values were measured using reversed phase HPLC column (PolymerX RP-1, Phenomenex, UK) with a fast acetonitrile gradient at starting mobile phase of pH = 7.4. CHI values are derived directly from the gradient retention times by using a calibration line obtained for standard compounds.
The CHI value approximates to the volume % organic concentration when the compound elutes. CHI is linearly transformed into ChromLogD7.4 by least-square fitting of experimental CHI values to calculated C logP values for over 20,000 research compounds using the following formula: ChromLogD7.4 = 0.0857CHI-2.001.
(1 picture or pasted object on this page, not shown here)

MCL1 protein expression = test: Immunoblot of MCL1 in eIF4E-dTAG clones and rescue models; type: cell-based, human; conditions: for Quantification of MCL1 immunoblot signals using Image J, Average: Cont = 100; for Quantification of MCL1 (6hr) immunoblot signal using Image J, Average: 0.5 μM, control = 100
Description: One sample t and Wilcoxon tests (two-sided), using 100% as hypothetical control value, were performed and compared with the control in each cell line. b, c Real-time cell growth measurements monitored every 4 h over a 6-day period. Cell confluency (%) was calculated using Incucyte Zoom software and (mean ± SEM n = 3 biological replicates). Ordinary one-way ANOVA with Tukey multiple comparisons test compared treatment with the control in each cell line. […] Vinculin was used as loading control. H1299 (PAR) cell lines were treated with 1 μM dTAG^V-1 only as qualitative control. Vinculin was used as loading control. […] Significant p-values (< 0.05) are shown on the plots and the source data is located in the Source Data file.
After seeding overnight in 6 well plates (Corning, cat#353046), cells were treated with compounds for the indicated times and concentration, harvested and the cell pellet lysed on ice in cell lysis buffer (Cell Signaling, cat#9803), supplemented with 1x Halt^TM protease inhibitor cocktail (Fisher Scientific, cat#78429) and cOmplete^TM protease inhibitor cocktail (Sigma-Aldrich, cat#11836153001) for 1 hr. Protein was quantified using BCA protein kit (Fisher Scientific, cat#23225). Western blot was performed using NuPAGE^TM 4–12% Bis-Tris gels (Fisher Scientific, cat#NP0336BOX) and transferred using the Invitrogen iBLOT^TM gel transfer device system (Fisher Scientific, Cat#IB21001). […] All primary antibodies were diluted (1:1000) in 5% BSA (Sigma-Aldrich, cat#A7906) in 1x TBS and 0.1% Tween 20 (Sigma-Aldrich, cat#P1379), except for vinculin (1:2000) that was diluted in casein blocker (Sigma-Aldrich, cat#1610782). This was followed by incubation with the secondary HRP-conjugated antibodies (anti-mouse HRP, Bio-rad, Watford, UK, cat#1705047; anti-rabbit HRP, Sigma-Aldrich, cat#NA934) in casein for 1 h at RT. ECL HRP substrate (SuperSignalTM West Pico, Fisher Scientific, cat#34578) was then added to detect protein targets by chemiluminescence and images acquired using the ChemiDocTM system (Bio-Rad). Quantitative densitometry analysis of protein bands was performed using Image J v1.53 software.

eIF4E:eIF4G interaction = eIF4E:eIF4G interaction (Homo sapiens, UniProt P06730); test: Electro-chemiluminescent binding assay, eIF4E:eIF4G, HeLa cell lysates; type: biochemical; parameters: endogenous in cells; host or cells: HeLa cells (lysates); conditions: for EC50: n = 4, read-out: Inhibition of PPI in HeLa cells: eIF4E-eIF4G interaction; for binding of eIF4G or 4E-BP1 with eIF4E, luminescence normalised to DMSO control, Average: HeLa, n=3, Fig. 4e
Sequence of eIF4E:eIF4G interaction (P06730 2-217 limits assumed): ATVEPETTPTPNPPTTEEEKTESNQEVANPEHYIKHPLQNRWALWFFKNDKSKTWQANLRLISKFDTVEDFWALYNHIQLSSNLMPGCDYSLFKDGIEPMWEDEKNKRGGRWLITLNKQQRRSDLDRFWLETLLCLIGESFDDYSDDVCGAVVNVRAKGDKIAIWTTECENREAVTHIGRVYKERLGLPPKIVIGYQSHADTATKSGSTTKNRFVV
Description: This assay uses plates with carbon electrodes and electro-chemiluminescent labels (SULFO-TAGs) that are conjugated to detection antibodies. When an electric current is applied to the plate electrodes the SULFO-TAG labels will emit light that is measured to quantify analytes in the sample. […] The plates were washed with 3 ×150 µl/well MSD wash buffer (cat#R61AA-1; 0.2% Tween-20 in PBS), then blocked with 150 µl/well block buffer (MSD, cat# R93AA) for 1 h. […] The incubated plates were washed 4x in 150 µl in MSD wash buffer and were re-blocked by the addition of 25 μl of blocking buffer containing a 1:500 dilution of the secondary antibody and incubated for 1 hr at RT with rotational shaking. […] Plates were then washed again 4x in 150 µl in MSD wash buffer and 25 μl of a 1:50 dilution of Goat anti-rabbit Sulfo-Tag (MSD, Cat# R32AB-1) in MSD blocking buffer was added and the plates incubated for 1 h at RT with rotational shaking. After a final wash step, 150 μl Read Buffer T4X (MSD, Cat# R92-TC2) was added and the plate read using the MSD QuickPlex SQ 120 plate reader.

## CC[C@H](O[C@H](C)CO)c1ccc(-c2ccccc2F)cc1NCCO [Compound 4]
eIF4E; 0.5 μM
  eIF4E stabilisation, eIF4E normalised to vinculin relative to average control (plotted on graph), Average: 1.140
eIF4E; 1 μM
  eIF4E stabilisation, eIF4E normalised to vinculin relative to average control (plotted on graph), Average: 1.298
eIF4E; 5 μM
  eIF4E stabilisation, eIF4E normalised to vinculin relative to average control (plotted on graph), Average: 1.771
eIF4E; 10 μM
  eIF4E stabilisation, eIF4E normalised to vinculin relative to average control (plotted on graph), Average: 2.067
eIF4E; H1299 cells, 50 µM
  protection of eIF4E from thermal denaturation: protected eIF4E from thermal denaturation
eIF4E; read-out: EC50, thermal protection of eIF4E (target engagement), intact H1299 cells, 57.6 °C
  EC50: 2000 nM
[1]
  Chrom LogD (pH 7.5): 4.6
MCL1 protein expression; 25 μM with dTAG^V-1, C3-1 or L85R rescue line
  MCL1 expression on co-treatment: no additional loss of proliferation or MCL1 expression
MCL1 protein expression; 25 μM, absence of dTAG^V-1, C3-1, W73F and L85R models
  effect on MCL1 biomarker: no effect on the MCL1 biomarker or proliferation
eIF4E:eIF4G interaction; HeLa cell lysates
  EC50: 1400 nM
eIF4E:eIF4G interaction; HeLa lysates, 100 µM, 30 min, single experiments Expt 1, Expt 2
  eIF4G:eIF4E HeLa, luminescence ratio normalised to DMSO control: 6.4% and 10%
eIF4E:eIF4G interaction; Conc 0.03 μM
  binding of eIF4G or 4E-BP1 with eIF4E, luminescence normalised to DMSO control, Average: 97.2%
eIF4E:eIF4G interaction; Conc 0.1 μM
  binding of eIF4G or 4E-BP1 with eIF4E, luminescence normalised to DMSO control, Average: 114.5%
eIF4E:eIF4G interaction; Conc 0.3 μM
  binding of eIF4G or 4E-BP1 with eIF4E, luminescence normalised to DMSO control, Average: 82.4%
eIF4E:eIF4G interaction; Conc 1 μM
  binding of eIF4G or 4E-BP1 with eIF4E, luminescence normalised to DMSO control, Average: 79.9%
eIF4E:eIF4G interaction; Conc 3 μM
  binding of eIF4G or 4E-BP1 with eIF4E, luminescence normalised to DMSO control, Average: 54.2%
eIF4E:eIF4G interaction; Conc 10 μM
  binding of eIF4G or 4E-BP1 with eIF4E, luminescence normalised to DMSO control, Average: 38.7%
eIF4E:eIF4G interaction; Conc 30 μM
  binding of eIF4G or 4E-BP1 with eIF4E, luminescence normalised to DMSO control, Average: 33.9%
eIF4E:eIF4G interaction; Conc 100 μM
  binding of eIF4G or 4E-BP1 with eIF4E, luminescence normalised to DMSO control, Average: 26.4%
eIF4E:eIF4G interaction; Conc 300 μM
  binding of eIF4G or 4E-BP1 with eIF4E, luminescence normalised to DMSO control, Average: 22.8%
eIF4E:eIF4G interaction; Conc 1000 μM
  binding of eIF4G or 4E-BP1 with eIF4E, luminescence normalised to DMSO control, Average: 28.1%

## CC[C@@H](O[C@H](C)CO)c1ccc(-c2ccccc2F)cc1NCCO [Compound 5]
eIF4E:eIF4G interaction; HeLa cell lysates
  effect on eIF4G binding: limited effect on eIF4G binding compared to 4
  EC50: > 100000 nM
eIF4E:eIF4G interaction; Conc 0.03 μM
  binding of eIF4G or 4E-BP1 with eIF4E, luminescence normalised to DMSO control, Average: 75.0%
eIF4E:eIF4G interaction; Conc 0.1 μM
  binding of eIF4G or 4E-BP1 with eIF4E, luminescence normalised to DMSO control, Average: 70.5%
eIF4E:eIF4G interaction; Conc 0.3 μM
  binding of eIF4G or 4E-BP1 with eIF4E, luminescence normalised to DMSO control, Average: 80.4%
eIF4E:eIF4G interaction; Conc 1 μM
  binding of eIF4G or 4E-BP1 with eIF4E, luminescence normalised to DMSO control, Average: 86.3%
eIF4E:eIF4G interaction; Conc 3 μM
  binding of eIF4G or 4E-BP1 with eIF4E, luminescence normalised to DMSO control, Average: 81.2%
eIF4E:eIF4G interaction; Conc 10 μM
  binding of eIF4G or 4E-BP1 with eIF4E, luminescence normalised to DMSO control, Average: 84.0%
eIF4E:eIF4G interaction; Conc 30 μM
  binding of eIF4G or 4E-BP1 with eIF4E, luminescence normalised to DMSO control, Average: 77.0%
eIF4E:eIF4G interaction; Conc 100 μM
  binding of eIF4G or 4E-BP1 with eIF4E, luminescence normalised to DMSO control, Average: 75.2%
eIF4E:eIF4G interaction; Conc 300 μM
  binding of eIF4G or 4E-BP1 with eIF4E, luminescence normalised to DMSO control, Average: 79.2%
eIF4E:eIF4G interaction; Conc 1000 μM
  binding of eIF4G or 4E-BP1 with eIF4E, luminescence normalised to DMSO control, Average: 79.6%

## CC[C@H](C(=O)N1CCCC[C@H]1C(=O)O[C@H](CCc1ccc(OC)c(OC)c1)c1ccccc1OCC(=O)NCCCCCCC(=O)N[C@H](C(=O)N1C[C@H](O)C[C@H]1C(=O)N[C@@H](C)c1ccc(-c2scnc2C)cc1)C(C)(C)C)c1cc(OC)c(OC)c(OC)c1 [dTAG^V-1]
MCL1 protein expression; C3-1 + WT eIF4E, 0.5 uM, n=3
  Quantification of MCL1 immunoblot signals using Image J, Average: 116.17
MCL1 protein expression; C3-1 + WT eIF4E, 1 uM, n=3
  Quantification of MCL1 immunoblot signals using Image J, Average: 110.20
MCL1 protein expression; C3-1, n=3
  Quantification of MCL1 (6hr) immunoblot signal using Image J, Average: 44
MCL1 protein expression; C3-1, 0.5 uM, n=3
  Quantification of MCL1 immunoblot signals using Image J, Average: 39.67
MCL1 protein expression; C3-1, 1 uM, n=3
  Quantification of MCL1 immunoblot signals using Image J, Average: 38.77
MCL1 protein expression; L85R, 0.5 uM, n=3
  Quantification of MCL1 immunoblot signals using Image J, Average: 69.30
MCL1 protein expression; L85R, 1 uM, n=3
  Quantification of MCL1 immunoblot signals using Image J, Average: 57.73
MCL1 protein expression; L134R, 0.5 uM, n=3
  Quantification of MCL1 immunoblot signals using Image J, Average: 63.30
MCL1 protein expression; L134R, 1 uM, n=3
  Quantification of MCL1 immunoblot signals using Image J, Average: 50.60
MCL1 protein expression; S209A rescue, n=3
  Quantification of MCL1 (6hr) immunoblot signal using Image J, Average: 117
MCL1 protein expression; S209A, 0.5 uM, n=3
  Quantification of MCL1 immunoblot signals using Image J, Average: 104.13
MCL1 protein expression; S209A, 1 uM, n=3
  Quantification of MCL1 immunoblot signals using Image J, Average: 110.17
MCL1 protein expression; W56A rescue, n=3
  Quantification of MCL1 (6hr) immunoblot signal using Image J, Average: 49
MCL1 protein expression; W56A, 0.5 uM, two experiments
  Quantification of MCL1 immunoblot signals using Image J, Average: 55.95
MCL1 protein expression; W56A, 1 uM, n=3
  Quantification of MCL1 immunoblot signals using Image J, Average: 64.70
MCL1 protein expression; W73F/L85R, 0.5 uM, n=3
  Quantification of MCL1 immunoblot signals using Image J, Average: 57.83
MCL1 protein expression; W73F/L85R, 1 uM, n=3
  Quantification of MCL1 immunoblot signals using Image J, Average: 56.77
MCL1 protein expression; W73F, 0.5 uM, n=3
  Quantification of MCL1 immunoblot signals using Image J, Average: 92.60
MCL1 protein expression; W73F, 1 uM, n=3
  Quantification of MCL1 immunoblot signals using Image J, Average: 99.57
MCL1 protein expression; WT rescue, n=3
  Quantification of MCL1 (6hr) immunoblot signal using Image J, Average: 99
MCL1 protein expression; eIF4E-dTAG clones
  MCL1 protein after treatment: decrease in MCL1 protein
